# In patent US9216999B2, “Substituted pyrrolo[2,3-h][1,6]naphthyridines and compositions thereof as JAK inhibitors” (priority 2011, dated 2015):
# Like-named read-outs stand apart in the source and are kept apart here.
# Legend:
# JAK3 = JAK3 (Homo sapiens (Human), UniProt P52333); test: JAK3 enzyme assay (Assay Example^b 1)
# JAK2 = JAK2 (Homo sapiens (Human), UniProt O60674); test: JAK2 enzyme assay (Assay Example^b 1)
# Tyk2 = Tyk2 (Homo sapiens (Human), UniProt P29597); test: Tyk2 enzyme assay (Assay Example^b 1)
# JAK1 = JAK1 (Homo sapiens (Human), UniProt P23458); test: JAK1 enzyme assay (Assay Example^b 1)
# [1] = IC50 (μM) JAK3, Table^b 78, ATP 100 μM
# [2] = IC50 (μM) JAK2, Table^b 79, ATP 100 μM
# [3] = IC50 (μM) TYK2, Table^b 79, ATP 100 μM
# [4] = IC50 (μM) JAK1, Table^b 78, ATP 100 μM
# [5] = IC50 (μM) JAK3, Table^b 80, ATP 100 μM
# [6] = IC50 (μM) JAK2, Table^b 80, ATP 100 μM
# [7] = IC50 (μM) TYK2, Table^b 80, ATP 100 μM
# [8] = IC50 (μM) JAK1, Table^b 80, ATP 100 μM
# Chain of JAK3 (P52333 whole entry): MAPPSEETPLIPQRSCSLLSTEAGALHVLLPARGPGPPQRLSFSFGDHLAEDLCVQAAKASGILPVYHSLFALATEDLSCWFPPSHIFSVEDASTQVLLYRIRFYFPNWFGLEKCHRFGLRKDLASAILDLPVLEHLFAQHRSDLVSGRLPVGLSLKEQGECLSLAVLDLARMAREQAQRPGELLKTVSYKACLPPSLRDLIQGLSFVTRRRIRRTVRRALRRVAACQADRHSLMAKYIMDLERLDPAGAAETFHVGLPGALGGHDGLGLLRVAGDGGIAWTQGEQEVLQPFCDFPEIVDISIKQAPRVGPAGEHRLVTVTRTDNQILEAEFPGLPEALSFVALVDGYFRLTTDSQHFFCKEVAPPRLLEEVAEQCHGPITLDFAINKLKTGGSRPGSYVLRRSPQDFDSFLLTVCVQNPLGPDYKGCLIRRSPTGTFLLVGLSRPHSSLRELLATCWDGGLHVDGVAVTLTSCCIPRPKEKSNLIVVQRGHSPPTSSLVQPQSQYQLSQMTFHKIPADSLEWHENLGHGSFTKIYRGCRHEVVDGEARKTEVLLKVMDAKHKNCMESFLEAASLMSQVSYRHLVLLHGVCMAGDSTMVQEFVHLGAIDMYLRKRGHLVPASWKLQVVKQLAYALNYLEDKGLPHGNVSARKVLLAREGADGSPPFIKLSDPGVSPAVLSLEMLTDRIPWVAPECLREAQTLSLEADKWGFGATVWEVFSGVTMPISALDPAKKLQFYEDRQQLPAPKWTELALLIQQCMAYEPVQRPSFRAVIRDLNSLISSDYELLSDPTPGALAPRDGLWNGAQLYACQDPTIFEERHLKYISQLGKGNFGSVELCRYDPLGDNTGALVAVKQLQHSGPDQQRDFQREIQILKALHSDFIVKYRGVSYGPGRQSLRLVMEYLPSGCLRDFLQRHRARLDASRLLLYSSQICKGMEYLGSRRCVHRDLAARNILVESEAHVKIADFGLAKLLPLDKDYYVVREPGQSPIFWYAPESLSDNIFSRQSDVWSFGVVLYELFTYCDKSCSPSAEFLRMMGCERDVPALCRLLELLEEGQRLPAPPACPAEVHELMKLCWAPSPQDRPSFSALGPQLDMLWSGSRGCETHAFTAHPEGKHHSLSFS
# Chain of Tyk2 (P29597 whole entry): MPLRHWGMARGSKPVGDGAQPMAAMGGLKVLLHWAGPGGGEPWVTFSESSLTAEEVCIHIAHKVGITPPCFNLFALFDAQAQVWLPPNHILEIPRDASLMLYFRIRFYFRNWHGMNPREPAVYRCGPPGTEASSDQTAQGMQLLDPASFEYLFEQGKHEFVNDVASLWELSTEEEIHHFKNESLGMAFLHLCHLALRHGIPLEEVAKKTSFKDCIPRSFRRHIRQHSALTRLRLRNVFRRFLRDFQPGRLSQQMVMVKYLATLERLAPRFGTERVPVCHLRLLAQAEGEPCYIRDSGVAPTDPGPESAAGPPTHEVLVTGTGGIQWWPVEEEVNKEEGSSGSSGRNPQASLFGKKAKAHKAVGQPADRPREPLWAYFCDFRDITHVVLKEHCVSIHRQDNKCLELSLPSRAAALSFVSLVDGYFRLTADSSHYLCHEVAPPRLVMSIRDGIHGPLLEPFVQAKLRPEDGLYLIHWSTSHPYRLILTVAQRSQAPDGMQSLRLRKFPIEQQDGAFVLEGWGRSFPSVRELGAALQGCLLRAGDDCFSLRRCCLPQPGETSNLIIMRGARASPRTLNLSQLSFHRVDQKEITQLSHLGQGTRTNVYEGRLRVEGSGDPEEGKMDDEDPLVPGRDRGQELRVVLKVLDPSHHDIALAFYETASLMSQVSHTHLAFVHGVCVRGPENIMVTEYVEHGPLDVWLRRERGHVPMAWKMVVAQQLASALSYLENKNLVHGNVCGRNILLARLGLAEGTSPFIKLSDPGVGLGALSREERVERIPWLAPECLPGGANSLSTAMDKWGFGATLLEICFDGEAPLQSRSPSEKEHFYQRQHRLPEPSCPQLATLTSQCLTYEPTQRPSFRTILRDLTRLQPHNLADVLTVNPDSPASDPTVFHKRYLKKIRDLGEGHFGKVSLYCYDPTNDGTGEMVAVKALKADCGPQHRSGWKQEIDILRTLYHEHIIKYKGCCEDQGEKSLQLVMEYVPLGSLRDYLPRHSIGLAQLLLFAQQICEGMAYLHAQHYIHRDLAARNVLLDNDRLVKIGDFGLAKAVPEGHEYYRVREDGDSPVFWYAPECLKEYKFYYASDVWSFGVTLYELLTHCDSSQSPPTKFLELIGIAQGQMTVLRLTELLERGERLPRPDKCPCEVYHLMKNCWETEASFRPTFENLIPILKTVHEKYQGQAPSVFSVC
smiles,measurement,setting,value
C[C@@H]1CCN(C(=O)CC#N)C[C@@H]1n1ccc(=O)c2cnc3[nH]ccc3c21 (racemic) [compound 7],IC50,JAK3; [1],0.0032 µM
same,IC50,JAK2; [2],0.004 µM
same,IC50,Tyk2; [3],0.06 µM
same,IC50,JAK1; [4],0.0017 µM
C[C@@H]1CCN(C(=O)CC2CC2)C[C@@H]1n1ccc(=O)c2cnc3[nH]ccc3c21 (racemic) [compound 8],IC50,JAK3; [1],0.041 µM
same,IC50,JAK2; [2],0.075 µM
same,IC50,Tyk2; [3],1.5 µM
same,IC50,JAK1; [4],0.026 µM
C[C@@H]1CCN(C(=O)CC(F)(F)F)C[C@@H]1n1ccc(=O)c2cnc3[nH]ccc3c21 (racemic) [compound 9],IC50,JAK3; [1],0.01 µM
same,IC50,JAK2; [2],0.0094 µM
same,IC50,Tyk2; [3],0.15 µM
same,IC50,JAK1; [4],0.004 µM
C[C@@H]1CCN(S(=O)(=O)CC(F)(F)F)C[C@@H]1n1ccc(=O)c2cnc3[nH]ccc3c21 (racemic) [compound 11],IC50,JAK2; [2],0.033 µM
C[C@@H]1CCN(C(=O)CC#N)C[C@@H]1N1COCc2cnc3[nH]ccc3c21 (racemic) [compound 16],IC50,JAK3; [1],0.11 µM
same,IC50,JAK1; [4],0.038 µM
C[C@@H]1CCN(Cc2ccccc2)C[C@@H]1n1ccc(=O)c2cnc3[nH]cc(Br)c3c21 (racemic) [compound 21],IC50,JAK3; [5],0.82 µM
same,IC50,JAK2; [6],1.3 µM
same,IC50,Tyk2; [7],> 1 µM
same,IC50,JAK1; [8],0.56 µM
Cc1cn([C@H]2CN(Cc3ccccc3)CC[C@H]2C)c2c(cnc3[nH]ccc32)c1=O (racemic) [compound 23],IC50,JAK1; [8],0.035 µM
C[C@@H]1CCN(Cc2ccccc2)C[C@@H]1n1cc(Br)c(=O)c2cnc3[nH]ccc3c21 (racemic) [compound 24],IC50,JAK2; IC50 (μM) JAK2,0.74 µM
C[C@@H]1CCN(S(=O)(=O)c2cccc(C(F)(F)F)c2)C[C@@H]1n1ccc(=O)c2cnc3[nH]ccc3c21 (racemic) [compound 33],IC50,JAK2; IC50 (μM) JAK2,0.12 µM
C[C@@H]1CCN(Cc2cccc(C#N)c2)C[C@@H]1n1ccc(=O)c2cnc3[nH]ccc3c21 (racemic) [compound 42],IC50,JAK3; [5],0.093 µM
same,IC50,JAK2; [6],0.15 µM
same,IC50,Tyk2; [7],> 1 µM
same,IC50,JAK1; [8],0.016 µM
C[C@@H]1CCN(C2CCCC2)C[C@@H]1n1ccc(=O)c2cnc3[nH]ccc3c21 (racemic) [compound 47],IC50,Tyk2; [7],> 1 µM
"CC1CCN(C(=O)C2CCC(C(C)(C)C)CC2)CC1n1ccc(=O)c2cnc3[nH]ccc3c21 (single isomer, unassigned) [Synthetic Example^b 48a, 1-{1-[4-(tert-Butyl)cyclohexanecarbonyl]-4-methylpiperidin-3-yl}-1H-pyrrolo[2,3-h][1,6]naphthyridin-4(7H)-one]",IC50,JAK3; [5],> 1 µM
same,IC50,Tyk2; [7],> 1 µM
same,IC50,JAK1; [8],0.14 µM
"CC1CCN(C(=O)C2CCC(C(C)(C)C)CC2)CC1n1ccc(=O)c2cnc3[nH]ccc3c21 (single isomer, unassigned) [Synthetic Example^b 48b, 1-{1-[4-(tert-Butyl)cyclohexanecarbonyl]-4-methylpiperidin-3-yl}-1H-pyrrolo[2,3-h][1,6]naphthyridin-4(7H)-one]",IC50,JAK3; [5],0.36 µM
same,IC50,"Tyk2; read-out: IC50 (μM) TYK2, Table^b 80, ATP 100 μM",> 1 µM
same,IC50,JAK1; [8],0.094 µM
"N#CCC[C@H]1CC[C@H](n2c(=O)[nH]c(=O)c3cnc4[nH]ccc4c32)CC1 [Synthetic Example^b 134, 3-[trans-4-(2,4-Dioxo-2,3,4,7-tetrahydro-1H-pyrrolo[3′,2′:5,6]pyrido[4,3-d]pyrimidin-1-yl)cyclohexyl]propanenitrile]",IC50,"JAK3; IC50 (μM) JAK3, ATP 100 μM",0.81 µM
same,IC50,"Tyk2; IC50 (μM) TYK2, ATP 100 μM",0.032 µM
same,IC50,"JAK1; IC50 (μM) JAK1, ATP 100 μM",0.002 µM
"CN(CC(F)(F)F)C[C@H]1CC[C@H](n2c(=O)[nH]c(=O)c3cnc4[nH]ccc4c32)CC1 [Synthetic Example^b 136, 1-(trans-4-{[Methyl(2,2,2-trifluoroethyl)amino]methyl}cyclohexyl)-1H-pyrrolo[3′,2′:5,6]pyrido[4,3-d]pyrimidine-2,4(3H,7H)-dione]",IC50,"JAK3; IC50 (μM) JAK3, ATP 100 μM",0.75 µM
same,IC50,"JAK1; IC50 (μM) JAK1, ATP 100 μM",0.0032 µM
"O=c1c2cnc3[nH]ccc3c2n(C2CCCCC2)c(=O)n1CC(F)(F)F [Synthetic Example^b 139, 1-cyclohexyl-3-(2,2,2-trifluoroethyl)-1H-pyrrolo[3′,2′:5,6]pyrido[4,3-d]pyrimidine-2,4(3H,7H)-dione]",IC50,"JAK3; IC50 (μM) JAK3, ATP 100 μM",> 1 µM
same,IC50,"Tyk2; IC50 (μM) TYK2, ATP 100 μM",> 1 µM
same,IC50,"JAK1; IC50 (μM) JAK1, ATP 100 μM",0.1 µM
CC1OCN(C2CCCCC2)c2c1cnc1[nH]ccc21 (centres unmarked) [compound 1],IC50,JAK3; [1],2 µM
same,IC50,Tyk2; [3],4.1 µM
same,IC50,JAK1; [4],0.38 µM
c1cc2c3c(cnc2[nH]1)COCN3C1CCCCC1 [compound 2],IC50,JAK2; [2],1.9 µM
same,IC50,JAK1; [4],0.33 µM
O=c1ccn(C2CCCCC2)c2c1cnc1[nH]ccc12 [compound 3],IC50,JAK3; [1],0.22 µM
same,IC50,JAK1; [4],0.017 µM
O=S1(=O)C=CN(C2CCCCC2)c2c1cnc1[nH]ccc21 [compound 12],IC50,Tyk2; [3],> 1 µM
same,IC50,JAK1; [4],0.13 µM
O=C1NCc2cnc3[nH]ccc3c2N1C1CCCCC1 [compound 17],IC50,JAK3; [1],0.69 µM
same,IC50,JAK2; [2],0.02 µM
same,IC50,Tyk2; [3],0.093 µM
O=c1ncc2cnc3[nH]ccc3c2n1C1CCCCC1 [compound 18],IC50,Tyk2; [3],0.25 µM
O=c1ccn(C2CCCCC2)c2c1cnc1[nH]cnc12 [compound 20],IC50,Tyk2; [3],0.76 µM
same,IC50,JAK1; [4],0.28 µM
O=C1NCc2cnc3[nH]ccc3c2N1C1CCN(Cc2ccccc2)CC1 [compound 59],IC50,JAK3; [5],2.1 µM
same,IC50,Tyk2; [7],4.3 µM
O=C1NCc2cnc3[nH]ccc3c2N1C1CCN(Cc2cccnc2)CC1 [compound 61],IC50,Tyk2; [7],3.6 µM
N#Cc1ccc(CN2CCC(N3C(=O)NCc4cnc5[nH]ccc5c43)CC2)cc1 [compound 62],IC50,JAK3; [5],> 1 µM
same,IC50,Tyk2; [7],> 1 µM
O=C1NCc2cnc3[nH]ccc3c2N1C1CCN(Cc2ccc(C(F)(F)F)cc2)CC1 [compound 63],IC50,JAK1; [8],0.12 µM
O=C(Nc1nncs1)N1CCC(N2C(=O)NCc3cnc4[nH]ccc4c32)CC1 [compound 64],IC50,JAK2; [6],0.02 µM
same,IC50,Tyk2; [7],0.17 µM
same,IC50,JAK1; [8],0.012 µM
O=C(CC(F)(F)F)N1CCC(N2C(=O)NCc3cnc4[nH]ccc4c32)CC1 [compound 65],IC50,JAK3; [5],9.5 µM
same,IC50,Tyk2; [7],2.9 µM
O=C1NCc2cnc3[nH]ccc3c2N1C1CCN(Cc2cncs2)CC1 [compound 66],IC50,JAK2; [6],0.14 µM
same,IC50,Tyk2; [7],0.99 µM
same,IC50,JAK1; [8],0.08 µM
O=c1ccn(C2CCN(Cc3ccc(Br)o3)CC2)c2c1cnc1[nH]ccc12 [compound 80],IC50,JAK3; [5],0.34 µM
same,IC50,JAK2; [6],0.02 µM
same,IC50,Tyk2; [7],0.24 µM
O=c1ccn(C2CCN(Cc3ccc(Br)s3)CC2)c2c1cnc1[nH]ccc12 [compound 81],IC50,JAK3; [5],0.031 µM
O=c1ccn(C2CCN(Cc3cnc(Br)s3)CC2)c2c1cnc1[nH]ccc12 [compound 83],IC50,JAK3; [5],0.62 µM
O=c1ccn(C2CCN(Cc3ccc4[nH]ccc4c3)CC2)c2c1cnc1[nH]ccc12 [compound 85],IC50,JAK3; [5],> 1 µM
Cc1nc(CN2CCC(n3ccc(=O)c4cnc5[nH]ccc5c43)CC2)cs1 [compound 86],IC50,JAK1; [8],0.043 µM
O=c1[nH]c(=O)n(C2CCN(CC3CC3)CC2)c2c1cnc1[nH]ccc12 [compound 91],IC50,"JAK3; IC50 (μM) JAK3, ATP 100 μM",> 1 µM
O=c1[nH]c(=O)n(C2CCN(CCC3CCOCC3)CC2)c2c1cnc1[nH]ccc12 [compound 93],IC50,"JAK3; IC50 (μM) JAK3, ATP 100 μM",> 1 µM
N#CC=CC1CCC(n2c(=O)[nH]c(=O)c3cnc4[nH]ccc4c32)CC1 (centres unmarked) [compound 103],IC50,"JAK3; IC50 (μM) JAK3, ATP 100 μM",> 1 µM
O=c1[nH]c(=O)n(C2C3CC4CC2CC(O)(C4)C3)c2c1cnc1[nH]ccc12 (centres unmarked) [compound 104],IC50,"JAK3; IC50 (μM) JAK3, ATP 100 μM",0.38 µM
same,IC50,"JAK2; IC50 (μM) JAK2, ATP 100 μM",0.046 µM
same,IC50,"Tyk2; IC50 (μM) TYK2, ATP 100 μM",0.38 µM
O=c1[nH]c(=O)n(C2C3CC4CC2CC(O)(C4)C3)c2c1cnc1[nH]ccc12 (centres unmarked) [compound 105],IC50,"JAK3; IC50 (μM) JAK3, ATP 100 μM",> 1 µM
same,IC50,"JAK2; IC50 (μM) JAK2, ATP 100 μM",> 1 µM
same,IC50,"Tyk2; IC50 (μM) TYK2, ATP 100 μM",> 1 µM
O=c1[nH]c(=O)n(C2CCN(CCNCC3CC3)CC2)c2c1cnc1[nH]ccc12 [compound 110],IC50,"JAK2; IC50 (μM) JAK2, ATP 100 μM",> 1 µM
same,IC50,"JAK1; IC50 (μM) JAK1, ATP 100 μM",0.42 µM
O=c1[nH]c(=O)n([C@H]2CC[C@H](CN3CC[C@@H](O)C3)CC2)c2c1cnc1[nH]ccc12 [compound 112],IC50,"JAK1; IC50 (μM) JAK1, ATP 100 μM",0.0026 µM
O=c1[nH]c(=O)n(C2CCC(CNCC3CC3)CC2)c2c1cnc1[nH]ccc12 (centres unmarked) [compound 117],IC50,"JAK3; IC50 (μM) JAK3, ATP 100 μM",> 1 µM
same,IC50,"JAK1; IC50 (μM) JAK1, ATP 100 μM",0.03 µM
O=c1[nH]c(=O)n(C2CCC(CN(CCO)Cc3ccccc3)CC2)c2c1cnc1[nH]ccc12 (centres unmarked) [compound 121],IC50,"JAK3; IC50 (μM) JAK3, ATP 100 μM",> 1 µM
N#CCC1CN(C[C@H]2CC[C@H](n3c(=O)[nH]c(=O)c4cnc5[nH]ccc5c43)CC2)C1 [compound 124],IC50,"JAK3; IC50 (μM) JAK3, ATP 100 μM",> 1 µM
O=c1[nH]c(=O)n([C@H]2CC[C@H](CNCC3(O)CCCCC3)CC2)c2c1cnc1[nH]ccc12 [compound 126],IC50,"JAK3; IC50 (μM) JAK3, ATP 100 μM",> 1 µM
O=CC1CCC(n2c(=O)[nH]c(=O)c3cnc4[nH]ccc4c32)CC1 (centres unmarked) [compound 133],IC50,"JAK3; IC50 (μM) JAK3, ATP 100 μM",> 1 µM
same,IC50,"Tyk2; IC50 (μM) TYK2, ATP 100 μM",0.41 µM
same,IC50,"JAK1; IC50 (μM) JAK1, ATP 100 μM",0.012 µM
O=c1c2cnc3[nH]ccc3c2n(C2CCCCC2)c(=O)n1CCN1CCOCC1 [compound 142],IC50,"JAK3; IC50 (μM) JAK3, ATP 100 μM",> 1 µM
CC(CO)(CO)Cn1c(=O)c2cnc3[nH]ccc3c2n(C2CCCCC2)c1=O [compound 151],IC50,"JAK3; IC50 (μM) JAK3, ATP 100 μM",> 1 µM
CN(C)C(=O)Cn1c(=O)c2cnc3[nH]ccc3c2n(C2CCCCC2)c1=O [compound 152],IC50,"JAK3; IC50 (μM) JAK3, ATP 100 μM",0.48 µM
CN(C)CCn1c(=O)c2cnc3[nH]ccc3c2n(C2CCCCC2)c1=O [compound 153],IC50,"JAK3; IC50 (μM) JAK3, ATP 100 μM",> 1 µM
O=c1c2cnc3[nH]ccc3c2n(C2CCCCC2)c(=O)n1C1CCNCC1 [compound 154],IC50,"JAK3; IC50 (μM) JAK3, ATP 100 μM",> 1 µM
O=C(CC(F)(F)F)N(CC(F)(F)F)C[C@H]1CC[C@H](n2c(=O)[nH]c(=O)c3cnc4[nH]ccc4c32)CC1 [compound 155],IC50,"JAK2; IC50 (μM) JAK2, ATP 100 μM",0.055 µM
same,IC50,"JAK1; IC50 (μM) JAK1, ATP 100 μM",0.0021 µM
